Data reported in patent publication US20260108546A1 (ELI LILLY AND COMPANY, priority 2024, published 2026).

Target: T1, hGIP-R (Homo sapiens, UniProt P48546)
T1 construct: expressed in transfected cells; host or cells: HEK-293 clonal cell lines
T1 sequence (P48546 22-466): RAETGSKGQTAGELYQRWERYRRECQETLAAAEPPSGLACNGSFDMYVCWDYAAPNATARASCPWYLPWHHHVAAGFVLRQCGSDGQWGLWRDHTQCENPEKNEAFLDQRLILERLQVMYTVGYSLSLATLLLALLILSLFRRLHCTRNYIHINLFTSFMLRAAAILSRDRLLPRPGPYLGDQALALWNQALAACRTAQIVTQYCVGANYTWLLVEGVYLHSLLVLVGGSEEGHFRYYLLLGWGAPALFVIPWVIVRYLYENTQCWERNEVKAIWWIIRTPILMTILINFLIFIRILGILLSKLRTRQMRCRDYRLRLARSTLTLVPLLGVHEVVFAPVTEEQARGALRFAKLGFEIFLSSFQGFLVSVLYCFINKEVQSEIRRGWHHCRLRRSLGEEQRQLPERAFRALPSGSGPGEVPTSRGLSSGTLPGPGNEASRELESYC
Assay: Functional hGIP-R Assay (cAMP formation, HTRF)
Assay type: cell-based
Settings: for Emax: cAMP efficacy, percent of maximal response to GIP(1-42)OH, 37° C., 0.1% bovine casein, arithmetic mean ± SEM; for EC50: cAMP potency, HEK-293 cells expressing hGIP-R, incubated at 37° C. in the presence of 0.1% bovine casein, geometric mean, read-out: Human GIP-R EC50, nM (SEM, n)
Summary of the method: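 HEK-293 cells expressing hGIP-R were given a 20-point compound series in DMEM with 0.1% casein, 250 μM IBMX, 1% DMSO, 30 min at 37 °C. cAMP was read by HTRF against a standard curve, expressed as % of human GIP (1-42) OH maximum; EC50 and Emax came from four-parameter fits.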

| SMILES | Emax | EC50 |
| --- | --- | --- |
| Cn1cc(C[C@@H](NC(=O)[C@H]2C[C@@H]2c2ccc(-c3cnc4nn(C)cc4c3)cc2)C(=O)NC(C)(C)Cn2nc(C(F)(F)F)cc2-n2ccccc2=O)cn1 [Example 20, (1S,2S)-N-((R)-1-((2-Methyl-1-(5-(2-oxopyridin-1(2H)-yl)-3-(trifluoromethyl)-1H-pyrazol-1-yl)propan-2-yl)amino)-3-(1-methyl-1H-pyrazol-4-yl)-1-oxopropan-2-yl)-2-(4-(2-methyl-2H-pyrazolo[3,4-b]pyridin-5-yl)phenyl) cyclopropane-1-carboxamide] | 126 ± 2.39% | 79.7 nM |
| Cn1cc2cc(-c3ccc(C4CC4C(=O)N[C@H](Cc4cnc5ncccn45)C(=O)NC(C)(C)Cn4cc(C(F)(F)F)cn4)c(F)c3)cnc2n1 (single isomer, unassigned; isomer 2) [Example 71] | 88.4 ± 10.3% | 74.8 nM |
| [2H]C([2H])([2H])N(C(=O)C1CC1(C)c1ccc(-c2cnc3nn(C)cc3c2)cc1F)[C@H](Cc1cnn(C(F)F)c1)C(=O)NC(C)(C)Cn1nc(C(F)(F)F)cc1-c1cc(F)c(=O)n(C)c1 (single isomer, unassigned; isomer 1) [Example 140] | 84.8 ± 5.99% | 51.7 nM |
| Cn1cc(C[C@@H](NC(=O)[C@H]2C[C@@H]2c2ccc(-c3cnc4nn(C)cc4c3)cc2)C(=O)NC(C)(C)Cn2nc(C(F)(F)F)cc2-c2cnn(C3COC3)c2)cn1 [Example 54, (1S,2S)-N-((R)-1-((2-Methyl-1-(1′-(oxetan-3-yl)-5-(trifluoromethyl)-1′H,2H-[3,4′-bipyrazol]-2-yl)propan-2-yl)amino)-3-(1-methyl-1H-pyrazol-4-yl)-1-oxopropan-2-yl)-2-(4-(2-methyl-2H-pyrazolo[3,4-b]pyridin-5-yl)phenyl) cyclopropane-1-carboxamide] | 137 ± 14.1% | 76.8 nM |
| Cn1cc(C[C@@H](NC(=O)[C@H]2C[C@@H]2c2ccc(-c3cnc4nn(C)cc4c3)cc2)C(=O)NC(C)(C)Cn2nc(C(F)(F)F)cc2-c2ccn(C[C@H]3C[C@H](F)C3)n2)cn1 [Example 67, (1S,2S)-N—((R)-1-((1-(1-(((trans)-3-fluorocyclobutyl)methyl)-5′-(trifluoromethyl)-1H,2′H-[3,3′-bipyrazol]-2′-yl)-2-methylpropan-2-yl)amino)-3-(1-methyl-1H-pyrazol-4-yl)-1-oxopropan-2-yl)-2-(4-(2-methyl-2H-pyrazolo[3,4-b]pyridin-5-yl)phenyl)cyclopropane-1-carboxamide] | 115 ± 8.68% | 45 nM |
| [2H]C([2H])([2H])N(C(=O)[C@H]1C[C@@H]1c1cnc(-c2cnc3nn(C)cc3c2)nc1C(F)(F)F)[C@H](Cc1cnn(C(F)F)c1)C(=O)NC(C)(C)Cn1nc(C(F)(F)F)cc1-c1cc(F)c(=O)n(C)c1 [Example 139, (1S,2S)-N-((R)-3-(1-(Difluoromethyl)-1H-pyrazol-4-yl)-1-((1-(5-(5-fluoro-1-methyl-6-oxo-1,6-dihydropyridin-3-yl)-3-(trifluoromethyl)-1H-pyrazol-1-yl)-2-methylpropan-2-yl)amino)-1-oxopropan-2-yl)-N-(methyl-d3)-2-(2-(2-methyl-2H-pyrazolo[3,4-b]pyridin-5-yl)-4-(trifluoromethyl)pyrimidin-5-yl)cyclopropane-1-carboxamide] | 99.7 ± 3.49% | 24.8 nM |
| Cc1cn2cc(-c3ccc([C@H]4C[C@@]45CCN([C@H](Cc4cnn(C(F)F)c4)C(=O)NC(C)(C)Cn4nc(C(F)(F)F)cc4-c4ccc(C(C)(C)O)nc4)C5=O)c(C)n3)cnc2n1 [Example 178, (R)-3-(1-(difluoromethyl)-1H-pyrazol-4-yl)-N-(1-(5-(6-(2-hydroxypropan-2-yl)pyridin-3-yl)-3-(trifluoromethyl)-1H-pyrazol-1-yl)-2-methylpropan-2-yl)-2-((1R,3R)-1-(2-methyl-6-(2-methylimidazo[1,2-a]pyrimidin-6-yl)pyridin-3-yl)-4-oxo-5-azaspiro[2.4]heptan-5-yl)propanamide] | 39.9 ± 0.556% | 0.743 nM |
| Cn1cc(-c2cc(C(F)(F)F)nn2CC(C)(C)NC(=O)[C@@H](Cc2cnn(C(F)F)c2)N2CC[C@@]3(C[C@@H]3c3ccc(-c4cnc5nn(CCO)cc5c4)cc3F)C2=O)cc(F)c1=O (single isomer, unassigned; isomer 1) [Example 107] | 108 ± 0.709% | 36.2 nM |
| Cn1cc(C[C@@H](NC(=O)[C@H]2C[C@@H]2c2ccc(-c3cnc4nn(C)cc4c3)cc2)C(=O)NC(C)(C)Cn2nc(C(F)(F)F)cc2-c2cn[nH]n2)cn1 [Example 92, (1S,2S)-N—((R)-1-((1-(5-(2H-1,2,3-Triazol-4-yl)-3-(trifluoromethyl)-1H-pyrazol-1-yl)-2-methylpropan-2-yl)amino)-3-(1-methyl-1H-pyrazol-4-yl)-1-oxopropan-2-yl)-2-(4-(2-methyl-2H-pyrazolo[3,4-b]pyridin-5-yl)phenyl)cyclopropane-1-carboxamide] | 126 ± 1.93% | 47.1 nM |
| [2H]C([2H])([2H])n1cc(C[C@H](C(=O)NC(C)(C)Cn2nc(C(F)(F)F)cc2-c2cnc(C(C)(C)O)nc2)N2CC[C@@]3(C[C@@H]3c3ccc(-c4cnc5nc(C6CC6)cn5c4)nc3C)C2=O)cn1 [Example 186, (R)-2-((1R,3R)-1-(6-(2-cyclopropylimidazo[1,2-a]pyrimidin-6-yl)-2-methylpyridin-3-yl)-4-oxo-5-azaspiro[2.4]heptan-5-yl)-N-(1-(5-(2-(2-hydroxypropan-2-yl)pyrimidin-5-yl)-3-(trifluoromethyl)-1H-pyrazol-1-yl)-2-methylpropan-2-yl)-3-(1-(methyl-d3)-1H-pyrazol-4-yl)propanamide] | 104 ± 0.548% | 1.75 nM |
| CN(C(=O)[C@H]1C[C@@H]1c1ccc(-c2cnc3nn(C)cc3c2)cc1)[C@H](Cc1cnn(C)c1)C(=O)NC(C)(C)Cn1nc(C(F)(F)F)cc1-c1n[nH]c(=O)s1 [Example 30, (1S,2S)-N-Methyl-N-((R)-1-((2-methyl-1-(5-(5-oxo-4,5-dihydro-1,3,4-thiadiazol-2-yl)-3-(trifluoromethyl)-1H-pyrazol-1-yl)propan-2-yl)amino)-3-(1-methyl-1H-pyrazol-4-yl)-1-oxopropan-2-yl)-2-(4-(2-methyl-2H-pyrazolo[3,4-b]pyridin-5-yl)phenyl) cyclopropane-1-carboxamide] | 95.2 ± 0.936% | 198 nM |
| Cc1cn2cc(-c3ccc([C@H]4C[C@@]45CCN([C@H](Cc4cnn(C(F)F)c4)C(=O)NC(C)(C)Cn4nc(C(F)(F)F)cc4-c4ccc(=O)n(COP(=O)(O)O)n4)C5=O)c(Cl)c3)cnc2n1 [Example 150, (3-(1-(2-((R)-2-((1S,3R)-1-(2-Chloro-4-(2-methylimidazo[1,2-a]pyrimidin-6-yl)phenyl)-4-oxo-5-azaspiro[2.4]heptan-5-yl)-3-(1-(difluoromethyl)-1H-pyrazol-4-yl)propanamido)-2-methylpropyl)-3-(trifluoromethyl)-1H-pyrazol-5-yl)-6-oxopyridazin-1 (6H)-yl)methyl dihydrogen phosphate] | 89.5 ± 6.21% | 2.06 nM |
| CC(C)(Cn1cc(C(F)(F)F)cn1)NC(=O)[C@@H](Cc1cnc2ncccn12)NC(=O)C1CC1c1ccc(-c2cnc3nn(C(F)F)cc3c2)cn1 (single isomer, unassigned; isomer 2) [Example 72] | 102 ± 4.83% | 300 nM |
| CC(C)(Cn1cc(C(F)(F)F)cn1)NC(=O)[C@@H](Cc1cnc2ncccn12)NC(=O)[C@H]1C[C@@H]1c1ccc(-c2cnc3nn(C4CCC4)cc3c2)cc1 [Example 84, (1S,2S)-2-(4-(2-Cyclobutyl-2H-pyrazolo[3,4-b]pyridin-5-yl)phenyl)-N-((R)-3-(imidazo[1,2-a]pyrimidin-3-yl)-1-((2-methyl-1-(4-(trifluoromethyl)-1H-pyrazol-1-yl)propan-2-yl)amino)-1-oxopropan-2-yl)cyclopropane-1-carboxamide] | 89.7% | 37.8 nM |
| Cc1cn2cc(-c3ccc([C@H]4C[C@@]45CCN([C@H](Cc4cnn(C(F)F)c4)C(=O)NC(C)(C)Cn4nc(C(F)(F)F)cc4-c4cnc(C(F)(F)F)nc4)C5=O)cc3)cnc2n1 (single isomer, unassigned; isomer 1) [Example 102] | 69.4 ± 0.0734% | 50.9 nM |
| Cn1cc(C[C@@H](NC(=O)[C@H]2C[C@@H]2c2ccc(-c3cnc4nn(C)cc4c3)cc2)C(=O)NC(C)(C)Cn2nc(C(F)(F)F)cc2-c2ccnc(C(C)(C)O)c2)cn1 [Example 18, (1S,2S)-N-((R)-1-((1-(5-(2-(2-Hydroxypropan-2-yl)pyridin-4-yl)-3-(trifluoromethyl)-1H-pyrazol-1-yl)-2-methylpropan-2-yl)amino)-3-(1-methyl-1H-pyrazol-4-yl)-1-oxopropan-2-yl)-2-(4-(2-methyl-2H-pyrazolo [3,4-b]pyridin-5-yl)phenyl) cyclopropane-1-carboxamide] | 116 ± 13% | 12 nM |
